{"source": "patent US6916843B1", "about": "“Anti-inflammatory actions of cytochrome P450 expoxygenase-derived eicosanoids” (The United States of America as represented by the …, priority 1999, dated 2005)", "key": {"IκB-α": {"tested_on": "IκB-α", "test": "Fate of IκB-α after TNF-α stimulation of human endothelial cells", "type": "cell-based", "conditions": "TNF-α 10 ng/ml, 15 min; EET 100 nM", "description": "Co-treatment with [11,12]-EET prevented the nuclear accumulation of RelA. Since the nuclear translocation of RelA requires the degradation of its endogenous cytoplasmic inhibitor, inhibitor kappa B (IκB-α), we followed the fate of IκB-α after TNF-α stimulation in the presence or absence of [11,12]-EET. Stimulation of human endothelial cells with TNF-α caused a rapid and almost complete disappearance of IκB-α which was prevented by co-treatment with [11,12]-EET, but not [14,15]-EET.\nA set of gel shift assays was performed. […] In some assays, [11,12]-EET (100 nM) was also added directly to the IKK assay (in vitro). As a control for nonspecific phosphorylation, the assay was performed without the addition of immunoprecipitated IKK (no enzyme) or in the presence of a IκB-α mutant (ΔSer 32, Ser 36→Thr) as substrate. The assay was performed three times with similar results.\nSpecificity of IKB was determined by the complete absence of phosphorylation when the mutated IκB-α substrate, GST-1κB-α (Δ32,36: S→T) which cannot be phosphorylated at serine residues 32 and 36, was substituted for wild-type GST-IκB-α."}, "[1]": {"tested_on": "bovine aortic endothelial cells (BAECs)", "test": "Hypoxia-reoxygenation-induced cell injury in BAECs (cell number, LDH release, trypan blue)", "type": "cell-based", "conditions": "1 μmol/L, added 10 min prior to hypoxia (24 h hypoxia, 4 h reoxygenation)", "procedure": "Effects of P450-derived arachidonic acid metabolites on hypoxia-reoxygenalion-induced injury in BAECs. BAECs, either untransfected, or 48 hours after transfection with pcDNA3.1/GFP or pcDNA3.1/CYP2J2, or 10 min after treatment with eicosanoids, epoxide hydrolase inhibitors or vehicle, were exposed to hypoxia (95% nitrogen plus 5% carbon dioxide) for 24 hours, followed by reoxygenation (95% air plus 5% carbon dioxide) for 4 hours using an environmental chamber within a 37° C. incubator. Cells maintained under continuous (28 hours) normoxic conditions served as controls.\nEETs were prepared by total chemical synthesis as previously described (Corey el al., 102 J. Am. Chem. Soc. 1433-1435 (1980), Falck et al., 23 Tetrahedron Lett. 1755-1756 (1982)). DHETs were prepared by chemical hydration of EETs as described by Capdevila et al., 187 Methods Enzymol. 386-394 (1990). Synthetic EETs and DHETs were purified by reverse-phase HPLC prior to use. BAECs, grown to ˜85% confluency, were treated with either synthetic [11,12]-EET, [11,12]-DHET, or [14,15]-EET in ethanol vehicle (1 μmol/L each, final concentration) for 10 min prior to exposure to hypoxia-reoxygenation. […] Cells treated with vehicle alone served as controls.\nAfter hypoxia-reoxygenation, the cell number was determined using a hemocytometer and the degree of cell injury was assessed by measuring lactate dehydrogenase release into the culture medium using the CytoTox 96 Non-Radioactive Cytotoxicity Assay Kit (Promega, Madison, Wis.) and by counting the number of trypan blue dye stained cells. Data are expressed as a percentage of values obtained from control cells maintained under normoxic conditions."}, "[2]": {"tested_on": "mononuclear cell adhesion to carotid artery", "test": "TNF-α-induced mononuclear cell (U937) adhesion in the murine carotid artery", "type": "in vivo", "conditions": "mouse, intra-arterial infusion 100 ng/kg/min, TNF-α 10 μg/kg i.p., 5 hours", "procedure": "FIG. 3A is a graph showing the expression of VCAM-1 in the murine carotid artery at 5 hours after treatment with intraperitaneal injection of TNF-α (10 μg/kg) alone or in combination with continuous intra-arterial infusion of [11,12]-EET (100 ng/kg/min). FIG. 3B is a bar graph showing the effect of [11,12]-EET on TNF-α induced mononuclear cell adhesion in the murine carotid artery. The mononuclear cells (U937) were perfused through the carotid artery at a wall shear stress of 3 dyn/cm^2. Intra-arterial infusion of vehicle (saline) or [14,15]-EET (100 ng/kg/min) had no effect. […] All experiments except the [14,15]-EET infusion were performed in duplicate.\nTo determine the functional relevance of EETs in vascular inflammation, we tested [11,12]-EET and its regioisomer [14,15]-EET in a recently developed in vivo model of TNF-α-induced VCAM-1 -mediated mononuclear cell adhesion in the murine carotid artery. […]\nCell rolling and adhesion were recorded on videotape using stroboscopic epifluoresence illumination with an introvital microscope (objective Zeiss 20×, 0.5 numerical aperture). […] In separate experiments, VCAM-1 expression was measured in paraffin-sections (5 μm thick) of carotid arteries harvested from mice treated in the same way. […]"}, "VCAM-1 expression": {"tested_on": "VCAM-1 expression", "test": "Cell-surface enzyme immunoassay of cytokine-induced VCAM-1 expression in endothelial cells", "type": "cell-based, human", "conditions": "human endothelial cells, 1-100 nM, TNF-α", "procedure": "FIG. 2 is a set of bar graphs of cell-surface enzyme immunoassays. […] The difference between treatment with TNF-α alone and in the presence of [11,12]-EET were statistically significant (*p<0.05, **p<0.01), OD, optical density. […] After stimulation with TNF-α (10 ng/ml) in the presence or absence of EET, promoter activity was determined relative to basal activity. *p<0.01 vs. TNF-α alone.\nTo determine the biological effects of EETs, we treated tumor necrosis factor alpha (TNF-α)-stimulated human endothelial cells with physiological relevant concentrations (1-100 nM) of [5,6]-EET, [8,9]-EET, [11,12]-EET, [14,15]-EET, [11,12]-DHET."}, "[3]": {"target": "mutated IκB-α substrate GST-IκB-α (Δ32,36: S→T) (UniProt P25963)", "sequence (P25963 other isoform, or with tags, fused parts or gaps mutant)": "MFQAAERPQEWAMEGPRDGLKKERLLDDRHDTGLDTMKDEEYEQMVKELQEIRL"}, "[4]": {"target": "purified GST-IκB-α fusion protein (wild-type) (UniProt P25963)", "sequence (P25963 1-54)": "as the sequence (P25963 other isoform, or with tags, fused parts or gaps mutant) above, with T32S, T36S counted along it"}}, "note": "Entries after “also recorded” stand apart in the source; their conditions may differ. Peptide text beside a SMILES is read from it. * marks the point of attachment. Cbz = O=C(OCc1ccccc1)*", "data": [{"molecule": "CC(C)C[C@@H](C=O)NC(=O)[C@H](CC(C)C)NC(=O)[C@H](CC(C)C)NC(=O)OCc1ccccc1", "note": "[MG132, reference compound] (Cbz-Leu-Leu-Leu-aldehyde)", "values": [{"measurement": "effect on TNF-α-induced disappearance/degradation of IκB-α", "setting": "IκB-α", "result": "prevented"}]}, {"molecule": "CCCCCC1OC1C/C=C\\C/C=C\\C/C=C\\CCCC(=O)O", "note": "(stereo not drawn) [[14,15]-EET]", "values": [{"measurement": "hypoxia-reoxygenation-induced cell injury, number of trypan blue stained cells", "setting": "[1]", "result": "active in attenuating; also recorded: significantly attenuates"}, {"measurement": "mononuclear cell adhesion to the vessel wall", "setting": "[2]", "result": "had no effect"}, {"measurement": "inhibition of TNF-α-induced VCAM-1 expression (rank/words)", "setting": "VCAM-1 expression", "result": "did not inhibit"}]}, {"molecule": "IκB kinase (IKK) immunoprecipitated from human endothelial cells", "values": [{"measurement": "IKK activity (phosphorylation of mutated substrate)", "setting": "[3]", "result": "complete absence of phosphorylation when the mutated IκB-α substrate, GST-1κB-α (Δ32,36: S→T) which cannot be phosphorylated at serine residues 32 and 36, was substituted for wild-type GST-IκB-α"}, {"measurement": "IKK activity (phosphorylation of GST-IκB-α substrate)", "setting": "[4]", "result": "Stimulation with TNF-α caused an increase in IKK activity"}]}]}
